The source of these data is publication PMC6718548, “Tau pathology reduction with SM07883, a novel, potent, and selective oral DYRK1A inhibitor: A potential therapeutic for Alzheimer's disease” (Aging Cell, 2019).

In test [1] the test system is phosphorylated tau at Thr212 in HEK293T cells. Put plainly: pTau Thr212 sandwich ELISA in double-transfected HEK293T cells. The test is classed as cell-based, human. The following applies: HEK293T co-transfected with DYRK1A and MAPT, overnight treatment, single lot, read-out: Cell assay EC50 pTau at Thr212. An excerpt: For the generation of the DYRK1A- and MAPT-overexpressing cells, HEK293T cells were transiently transfected with DYRK1A and MAPT genes. Specifically, expression vectors pCMV6-XL4 and pCMV6-Entry expressing DYRK1A and MAPT, alongside an empty vector control (pCI, OriGene, Catalog #SC314641 and RC216166, respectively; Promega, Catalog #E1731) and the material was amplified and purified using a custom MaxiPrep service (GENEWIZ, South Plainfield, NJ).
(§1) For ELISA assays, native SH-SY5Y cells, or transiently double-transfected HEK293T cells were dissociated by treatment with trypsin-EDTA and seeded in 96-well flat-bottom cell culturing plate before administration of 3-fold serial dilution of SM07883 overnight.
(§2) Following compound treatment, cells were washed and lysed with 1x RIPA buffer containing phosphatase and protease inhibitors transferred to 96-well V-bottom collection plates for centrifugation and removal of insoluble material.
The pTau Thr212 ELISA 96-well flat-bottom plates, were coated with anti-HT7 capture antibody (Catalog MN1000, Thermo Fisher, Waltham, […]) diluted 1:300 in 1X PBS at 4°C. After overnight incubation, coated plates were washed with 1× PBS containing 0.05% Tween-20 and blocked for 1hr 2% BSA (A7030-50G, Sigma-Aldrich, St. Louis, MO), then washed prior to sample loading.
For the pTau Thr212 sandwich ELISA, cell lysates were directly transferred to the anti-HT7 capture, antibody-coated, and BSA-blocked ELISA plates for 2hrs. Supernatant was then removed, and plates were washed with 1× PBS-0.05% Tween-20, followed by addition of 100 µL per well anti-phosphorylated tau Thr212 antibody (Catalog 44-740G, Thermo Fisher) diluted 1:200 in 1× PBS for 2hrs. Plates were washed and probed with an anti-rabbit/HRP conjugate (Cell Signaling Technology, 7074S) for 1hr then washed before a TMB substrate solution (Catalog N301, Thermo Fisher) was added. When a deep blue color was observed, 100 µL per well of stop solution (Catalog N600, Thermo Fisher) was added.
(§3) Colorimetric detection of pT212Tau or pS396Tau signal was read at 450 nm using the Cytation 3 Cell Imaging Multi-Mode Reader (BioTek, Winooski, VT). The signal was used to plot, draw the curve fitting, and determine the EC50 value for SM07883 in Prism 7 (GraphPad, La Jolla, CA).

In test [2] the test system is phosphorylated tau at Ser396 in SH-SY5Y cells. The test can be described thus: pSer396Tau ELISA in SH-SY5Y neuroblastoma cells. Type of test: cell-based, human. Particulars: overnight (16 hr) treatment, single lot, read-out: Cell assay EC50 pTau at Ser396.
Source text: as §1, §2, §3
In general terms: In an ELISA, binding on a coated surface is turned into a signal by an enzyme label.

The target of another test is T1, GSK‐3β (Homo sapiens, UniProt P49841).
T1 construct: purchased Thermo Fisher SelectScreen service
The test can be described thus: Kinase IC50 (SelectScreen). The test is classed as biochemical. Particulars: Suppl. Table 2 comparison with commercially available inhibitors; read-out: Kinase IC50 GSK-3b.

The next test has as its target T2, DYRK1a (Homo sapiens, UniProt Q13627).
T2 construct: purchased Thermo Fisher Scientific
The test can be described thus: DYRK1A kinase assay (Z-Lyte / SelectScreen IC50). The test is classed as biochemical. The following applies: Suppl. Table 2 comparison with commercially available inhibitors.

The structures appear in SMILES notation. Read-outs that look alike come from different tables or passages of the source.

T1 sequence (P49841 whole entry): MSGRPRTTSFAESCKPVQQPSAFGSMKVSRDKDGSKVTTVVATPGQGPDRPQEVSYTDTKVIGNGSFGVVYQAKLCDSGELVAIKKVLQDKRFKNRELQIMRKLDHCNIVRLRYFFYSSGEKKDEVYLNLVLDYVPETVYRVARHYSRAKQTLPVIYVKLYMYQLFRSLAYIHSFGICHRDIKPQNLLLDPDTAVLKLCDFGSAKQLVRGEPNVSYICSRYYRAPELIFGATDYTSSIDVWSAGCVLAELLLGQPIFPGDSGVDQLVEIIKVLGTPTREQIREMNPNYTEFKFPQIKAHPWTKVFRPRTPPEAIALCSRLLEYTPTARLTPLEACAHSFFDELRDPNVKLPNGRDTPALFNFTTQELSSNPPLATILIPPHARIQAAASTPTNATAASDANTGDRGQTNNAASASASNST

Take `Cc1c[nH]c(-c2cnc(NCCNc3ccc(C#N)cn3)nc2-c2ccc(Cl)cc2Cl)n1` [CHIR-99021]: the EC50 in test [1] (Homo sapiens, HEK-293T) was > 10000 nM; in test [2] (Homo sapiens) it was 252 nM.
`CCN1/C(=C/C(C)=O)Sc2ccc(OC)cc21` [TG003]: the IC50 at GSK‐3β is > 10000 nM. For the same compound, the half-maximal effective concentration (EC50) in test [1] and in test [2] was > 10000 nM each time.
`COc1ccc2c(c1)[nH]c1c(C)nccc12` [Harmine]: the EC50 is 233 nM in test [1] (Homo sapiens, HEK-293T) and > 10000 nM in test [2] (Homo sapiens).
Take `O=C(O[C@@H]1Cc2c(O)cc(O)cc2O[C@@H]1c1cc(O)c(O)c(O)c1)c1cc(O)c(O)c(O)c1` [EGCG, Epigallocatechin gallate]: the IC50 on GSK‐3β is > 10000 nM; against DYRK1a, 1400 nM. Moreover, the concentration for a half-maximal effect (EC50) in test [1] and in test [2] was > 10000 nM throughout.
As to `CCN1/C(=C/C(C)=O)Sc2ccc(O)cc21` [INDY], the half-maximal inhibitory concentration (IC50) on GSK‐3β was > 10000 nM. In addition, the EC50 in test [1] and in test [2] was > 10000 nM throughout.
As for `O=c1sn(-c2cccc3ccccc23)c(=O)n1Cc1ccccc1` [Tideglusib], the concentration for a half-maximal effect (EC50) is > 10000 nM in test [1] (Homo sapiens, HEK-293T) and > 10000 nM in test [2] (Homo sapiens).
On to `O=C(O)c1ccc2c(c1)nc(Nc1cccc(Cl)c1)c1ccncc12` [CX-4945], for which the concentration giving a half-maximal response (EC50) in test [1] (Homo sapiens, HEK-293T) amounted to 428 nM; in test [2] (Homo sapiens), 5200 nM.
On to `COC(=N)c1nc2ccc3ncnc(Nc4ccc(Cl)cc4Cl)c3c2s1` [EHT-5372], for which the IC50 is > 10000 nM on GSK‐3β and 83 nM on DYRK1a. Besides, the EC50 is 3800 nM in test [1] and 2500 nM in test [2].
`Cc1ccc(C(=O)Nc2c[nH]nc2C(=O)NCCCOC(C)C)cn1` [Compound A, 6-Methyl-N-[3-[[3-(1-methylethoxy)propyl]carbamoyl]-1H-pyrazol-4-yl]pyridine-3-carboxamide]: the EC50 is > 10000 nM in test [1] (Homo sapiens, HEK-293T) and 6 nM in test [2] (Homo sapiens). At DYRK1a, this compound gave an IC50 of 761 nM.
Regarding `O=C1NC(Nc2ccccc2)=N/C1=C\c1ccc2c(c1)OCO2` [Leucettine L41], the IC50 at GSK‐3β amounted to 1100 nM. For the same compound, the EC50 in test [1] stood at 72 nM; in test [2] it was 1400 nM.

The EC50 is the concentration that produces a half-maximal response. As usually defined, the IC50 is the point on the concentration scale where inhibition reaches its midpoint.
